Usually solubility stands for the concentration that dissolves in the medium under given conditions. Higher therefore signals much dissolved substance.

≈ marks a conversion by molar mass, not a printed value. Read-outs that look alike come from different tables or passages of the source. A value given as a limit tells only on which side of the number the result lay.

One data set deals with human hERG channels (Homo sapiens (Human), UniProt Q12809). As to the kind of experiment: hERG assay (patch clamp, CHO cells). In kind it is cell-based. The method, then: hERG assay: Briefly, cells from a stable CHO cell line expressing human hERG channels were plated onto glass coverslips and used in patch clamp assays on the same day. After seal formation and break-in to whole-cell configuration, voltage steps were applied as follows: from the holding potential of −90 mV, a 2 second long step to +40 mV was applied, followed by a 1.5 second step to −50 mV. These steps were applied once every 5 seconds. The hERG current was measured at the peak of the outward tail current at −50 mV. The pipette solution was potassium aspartate based and the external solution was normal Ringer's.
All currents were recorded in whole-cell configuration using an Axopatch 200B controlled by pClamp 10 software (Molecular Devices). In each cell, when the current stabilized, the compound was perfused locally onto the cell. Two to three concentrations of the test compound were applied to each cell. At the end of compound testing, 10 μM verapamil was applied to completely block hERG currents and assess leak current.
Data were analyzed by computing the degree of current block after compound addition compared with the unblocked current amplitude. The unblocked current was predicted from the interpolation between the current amplitude prior to compound addition and after compound washout. The resulting percent block at each concentration was used to make a concentration-response plot and fitted to the Hill equation: percent block=minimum block+(maximum block-minimum block)/(1+10^(Hill slope*(log IC50−concentration))).
A general note: hERG is a cardiac potassium channel; its block is linked to QT prolongation.

Data set [1] in a line: Metabolic Stability assay, rat liver microsomes. In kind it is in vitro ADME. To be noted: read-out: LM T1/2 (min) rat. The gist of the method:
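Reactions in human or rat liver microsomes at 37 °C were started with an NADPH-regenerating system, using 1 μM compound initially. Samples were taken at 0, 7, 15, 30 and 60 min, quenched in ice-cold acetonitrile/MeOH/H2O, and quantified by HPLC/MS/MS.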
A general note: Microsomes from liver hold many membrane-bound enzymes, among them those of drug oxidation.

The next data set addresses hTRPV3 (Homo sapiens (Human), UniProt Q8NET8). As to the kind of experiment: Whole-cell patch clamp, hTRPV3 Phase 1 / Phase 2 currents. In kind it is cell-based. The gist of the method: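 Currents are activated by 20 μM 2-APB or by perfusate at 28 °C or warmer, in Ringer's solution, and quantified at ±80 mV.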
A general note: The patch-clamp technique gives a direct electrical read-out from membranes.

Data set [2] in a line: Aqueous solubility assay in Normal Ringer Solution. To be noted: Normal Ringer Solution, saline or isotonic, kinetic from dmso stock. The method, then:
Following vortex and incubation for a sufficient time (e.g. 40 minutes at room temperature), solutions were filtered, quenched with acetonitrile, and analyzed by Liquid Chromotography. Solubility Limits were determined by comparison to a standard curve.

Where [3] appears, read: Phase 1 current, human TRPV3, read-out: hTRPV3 (nM) Phase 1.
[4] abbreviates: Phase 1 current, inward, whole-cell patch clamp, read-out: hTRPV3 Patch P1 Inwd.

Sequence of human hERG channels (Q12809 whole entry): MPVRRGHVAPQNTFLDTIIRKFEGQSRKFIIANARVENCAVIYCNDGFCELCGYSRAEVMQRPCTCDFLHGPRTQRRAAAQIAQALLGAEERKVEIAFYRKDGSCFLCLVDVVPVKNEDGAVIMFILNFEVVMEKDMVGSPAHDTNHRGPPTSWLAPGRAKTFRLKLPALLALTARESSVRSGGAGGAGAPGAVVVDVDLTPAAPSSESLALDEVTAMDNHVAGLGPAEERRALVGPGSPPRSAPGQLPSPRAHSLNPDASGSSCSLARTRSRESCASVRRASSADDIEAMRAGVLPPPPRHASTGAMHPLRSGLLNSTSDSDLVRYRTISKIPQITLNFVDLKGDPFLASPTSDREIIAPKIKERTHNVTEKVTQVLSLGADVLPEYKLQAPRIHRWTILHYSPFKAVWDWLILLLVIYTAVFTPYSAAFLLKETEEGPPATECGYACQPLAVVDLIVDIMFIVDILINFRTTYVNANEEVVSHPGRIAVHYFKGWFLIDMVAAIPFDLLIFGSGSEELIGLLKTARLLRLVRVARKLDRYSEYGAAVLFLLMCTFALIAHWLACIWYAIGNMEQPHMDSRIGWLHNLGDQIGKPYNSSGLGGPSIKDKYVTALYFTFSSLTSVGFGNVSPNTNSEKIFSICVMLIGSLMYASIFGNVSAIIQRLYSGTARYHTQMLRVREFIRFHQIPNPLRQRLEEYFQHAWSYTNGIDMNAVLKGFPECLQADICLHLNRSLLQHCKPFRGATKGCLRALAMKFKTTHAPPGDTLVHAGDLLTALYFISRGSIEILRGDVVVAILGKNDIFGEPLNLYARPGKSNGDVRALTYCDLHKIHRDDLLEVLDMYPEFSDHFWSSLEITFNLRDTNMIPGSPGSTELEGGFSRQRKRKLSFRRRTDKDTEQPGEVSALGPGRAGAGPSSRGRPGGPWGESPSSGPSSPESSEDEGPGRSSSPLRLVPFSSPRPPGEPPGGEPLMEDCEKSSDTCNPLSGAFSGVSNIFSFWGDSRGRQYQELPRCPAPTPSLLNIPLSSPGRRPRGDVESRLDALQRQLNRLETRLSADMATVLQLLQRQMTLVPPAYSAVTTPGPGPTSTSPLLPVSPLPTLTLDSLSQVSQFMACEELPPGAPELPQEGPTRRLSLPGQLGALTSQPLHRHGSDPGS
Sequence of hTRPV3 (Q8NET8 whole entry): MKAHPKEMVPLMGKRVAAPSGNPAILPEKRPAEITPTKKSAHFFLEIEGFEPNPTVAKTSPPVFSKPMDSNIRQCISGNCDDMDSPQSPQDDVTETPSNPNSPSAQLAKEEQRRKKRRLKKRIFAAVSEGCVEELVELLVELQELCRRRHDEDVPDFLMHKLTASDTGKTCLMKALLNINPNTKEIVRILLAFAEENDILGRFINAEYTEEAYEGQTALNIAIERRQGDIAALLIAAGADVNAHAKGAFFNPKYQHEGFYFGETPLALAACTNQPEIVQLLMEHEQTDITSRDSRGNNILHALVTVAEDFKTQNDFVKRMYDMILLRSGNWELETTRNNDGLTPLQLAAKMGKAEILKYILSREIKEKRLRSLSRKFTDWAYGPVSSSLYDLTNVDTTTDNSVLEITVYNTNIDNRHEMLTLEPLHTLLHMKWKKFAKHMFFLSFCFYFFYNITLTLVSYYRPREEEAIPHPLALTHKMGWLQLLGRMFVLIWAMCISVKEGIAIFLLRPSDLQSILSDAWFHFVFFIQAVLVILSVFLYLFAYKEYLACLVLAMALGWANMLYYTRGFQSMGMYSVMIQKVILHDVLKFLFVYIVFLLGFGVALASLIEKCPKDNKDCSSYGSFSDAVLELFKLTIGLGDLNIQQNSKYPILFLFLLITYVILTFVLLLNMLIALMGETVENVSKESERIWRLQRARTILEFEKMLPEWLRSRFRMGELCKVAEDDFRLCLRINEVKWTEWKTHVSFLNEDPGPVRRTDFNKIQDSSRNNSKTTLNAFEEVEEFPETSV

As to `CC(C)c1ccccc1Oc1ccc(C2CCN(C(=O)c3ncccc3Cl)C2)c(CO)c1` (centres unmarked) [Compound 2-12, (3-chloropyridin-2-yl)(3-(2-(hydroxymethyl)-4-(2-isopropylphenoxy)phenyl)pyrrolidin-1-yl)methanone], the IC50 on human hERG channels ((PL), read-out: hERG (nM) (PL)) was 12600 nM; on hTRPV3 (setting [3]) it was 101 nM; on hTRPV3 (setting [4]), 10 to 100 nM. For the same molecule, the half-life at 1 μM in data set [1] was 7.55 min. The same molecule came in with a solubility at 40 min in data set [2] of over 8 µM.

Regarding `CC(C)c1ccccc1Oc1ccc(C2CCN(C(=O)c3ccc(F)cn3)C2)c(CO)c1` (centres unmarked) [Compound 2-16, (5-fluoropyridin-2-yl)(3-(2-(hydroxymethyl)-4-(2-isopropylphenoxy)phenyl)pyrrolidin-1-yl)methanone], the IC50 at human hERG channels ((PL), read-out: hERG (nM) (PL)) is 9650 nM; on hTRPV3 (setting [3]), 29.7 nM; at hTRPV3 (setting [4]), 10 to 100 nM; on hTRPV3 (Phase 2 current, human TRPV3, read-out: hTRPV3 (nM) Phase 2), 25.7 nM; on hTRPV3 (Phase 2 current, inward, whole-cell patch clamp, read-out: hTRPV3 Patch P2 Inwd), 10 to 100 nM. In addition, the half-life at 1 μM in data set [1] came to 5.3 min. Also, the solubility at 40 min in data set [2] was about 4.7 µM (≈ 2.04 µg/mL).

Consider `CC(C)c1ccccc1Oc1ccc(C2CCN(C(=O)c3cccc(Cl)n3)C2)c(CO)c1` (centres unmarked) [Compound 2-20, (6-chloropyridin-2-yl)(3-(2-(hydroxymethyl)-4-(2-isopropylphenoxy)phenyl)pyrrolidin-1-yl)methanone], for which the IC50 is about 5330 nM at human hERG channels; 3910 nM on human hERG channels ((M), read-out: hERG); 62 nM at hTRPV3 (setting [3]); 10 to 100 nM at hTRPV3 (setting [4]). Moreover, in data set [1], the half-life at 1 μM was determined as 8.33 min. This molecule also had a solubility at 40 min in data set [2] of about 1.6 µM (≈ 0.722 µg/mL).

Regarding `CCc1cncnc1Oc1ccc(C2CCN(C(=O)c3ncccc3Cl)C2)c(CO)c1` (centres unmarked) [Compound 2-22, (3-chloropyridin-2-yl)(3-(4-(5-ethylpyrimidin-4-yloxy)-2-(hydroxymethyl)phenyl)pyrrolidin-1-yl)methanone], the IC50 at human hERG channels ((PL), read-out: hERG (nM) (PL)) was over 32000 nM; on hTRPV3 (setting [3]), over 3200 nM; at hTRPV3 (setting [4]), over 1000 nM. For the same molecule, the half-life at 1 μM in data set [1] came to 31.8 min. The molecule further registered a solubility at 40 min in data set [2] of over 20.3 µM.

Turning to `CC(C)c1ccccc1Oc1ccc(C2CCN(C(=O)c3ncccc3Cl)C2)c(C(N)=O)c1` (centres unmarked) [Compound 2-26, 2-(1-(3-chloropicolinoyl)pyrrolidin-3-yl)-5-(2-isopropylphenoxy)benzamide], the IC50 on human hERG channels ((PL), read-out: hERG (nM) (PL)) was 10400 nM; at hTRPV3 (setting [3]) it was 217 nM; at hTRPV3 (setting [4]), 100 to 1000 nM. Also, the half-life at 1 μM in data set [1] was determined as 19.7 min. The solubility at 40 min in data set [2] is over 19.2 µM.

With `CCc1ccccc1-c1ccc(C2CCN(C(=O)c3ccc(F)cn3)C2)c(CO)c1` (centres unmarked) [Compound 2-28, (3-(2′-ethyl-3-(hydroxymethyl)biphenyl-4-yl)pyrrolidin-1-yl)(5-fluoropyridin-2-yl)methanone], the IC50 was 13700 nM at human hERG channels ((PL), read-out: hERG (nM) (PL)); 19.6 nM at hTRPV3 (setting [3]); 10 to 100 nM on hTRPV3 (setting [4]). For the same molecule, the half-life at 1 μM in data set [1] was determined as 18.4 min. The same molecule had a solubility at 40 min in data set [2] of over 15 µM.

`CC(C)c1ccccc1-c1ccc(C2CCN(C(=O)c3ccccn3)C2)c(CO)c1` (centres unmarked) [Compound 2-42]: the IC50 at human hERG channels ((PL), read-out: hERG (nM) (PL)) was 18300 nM; at hTRPV3 (setting [3]), 22.7 nM; on hTRPV3 (setting [4]) it was 10 to 100 nM. For the same molecule, the half-life at 1 μM in data set [1] turned out to be 11.7 min. In data set [2], the solubility at 40 min is over 19.7 µM.

For the molecule `CCc1ccccc1-c1ccc(C2CCN(C(=O)c3ccc(C(F)(F)F)cn3)C2)c(CO)c1` (centres unmarked) [Compound 2-47, (3-(2′-ethyl-3-(hydroxymethyl)biphenyl-4-yl)pyrrolidin-1-yl)(5-(trifluoromethyl)pyridin-2-yl)methanone], the IC50 at human hERG channels ((PL), read-out: hERG (nM) (PL)) was 17200 nM; at hTRPV3 (setting [3]), 18.4 nM; at hTRPV3 (setting [4]), 10 to 100 nM. In data set [1], the half-life at 1 μM came to 28.1 min. The same molecule registered a solubility at 40 min in data set [2] of about 5.6 µM (≈ 2.55 µg/mL).

Take `CCc1ccccc1-c1ccc(C2CCN(C(=O)c3cc(Cl)ccn3)C2)c(CO)c1` (centres unmarked) [Compound 2-48, (4-chloropyridin-2-yl)(3-(2′-ethyl-3-(hydroxymethyl)biphenyl-4-yl)pyrrolidin-1-yl) methanone]: the IC50 at human hERG channels ((PL), read-out: hERG (nM) (PL)) is 13400 nM; on hTRPV3 (setting [3]), 69.3 nM; on hTRPV3 (setting [4]), 10 to 100 nM. Also, the half-life at 1 μM in data set [1] was 7.54 min. In data set [2], this molecule gave a solubility at 40 min of over 8 µM.

Turning to `CCc1c(C)cccc1-c1ccc(C2CCN(C(=O)c3ccc(F)cn3)C2)c(CO)c1` (centres unmarked) [Compound 2-64, (3-(2′-ethyl-3-(hydroxymethyl)-3′-methylbiphenyl-4-yl)pyrrolidin-1-yl)(5-fluoropyridin-2-yl)methanone], the IC50 is 10100 nM at human hERG channels ((PL), read-out: hERG (nM) (PL)); 18 nM at hTRPV3 (setting [3]); 10 to 100 nM at hTRPV3 (setting [4]). Also, the half-life at 1 μM in data set [1] was 6.38 min. Further, the solubility at 40 min in data set [2] was over 15.7 µM.

With `CCOc1ccccc1-c1ccc(C2CCN(C(=O)c3ccc(Cl)cn3)C2)c(CO)c1` (centres unmarked) [Compound 2-69, (5-chloropyridin-2-yl)(3-(2′-ethoxy-3-(hydroxymethyl)biphenyl-4-yl)pyrrolidin-1-yl)methanone], the IC50 at human hERG channels ((PL), read-out: hERG (nM) (PL)) was 12300 nM; at hTRPV3 (setting [3]), 25.3 nM; on hTRPV3 (setting [4]), 10 to 100 nM. The half-life at 1 μM in data set [1] is 12.6 min. In addition, the solubility at 40 min in data set [2] was over 16 µM.

As for `O=C(c1ccc(F)cn1)N1CCC(c2ccc(-c3ccccc3)nc2CO)C1` (centres unmarked) [Compound 2-80], the IC50 at human hERG channels ((PL), read-out: hERG (nM) (PL)) was 5520 nM; on hTRPV3 (setting [3]), 163 nM; at hTRPV3 (setting [4]) it was 100 to 1000 nM.

In the case of `CCc1ccccc1Oc1ccc(C2CCN(C(=O)c3ncccc3Cl)C2)c(CO)c1` (centres unmarked) [Compound 2-83, (3-chloropyridin-2-yl)(3-(4-(2-ethylphenoxy)-2-(hydroxymethyl)phenyl)pyrrolidin-1-yl)methanone], the IC50 at human hERG channels ((PL), read-out: hERG (nM) (PL)) amounted to 16000 nM; on hTRPV3 (setting [3]), 95.1 nM. The half-life at 1 μM in data set [1] was found to be 9.46 min. Also, in data set [2], the solubility at 40 min is over 11 µM.

Regarding `CC(C)c1ccccc1Oc1ccc(C2CCN(Cc3ccccn3)C2)c(CO)c1` (centres unmarked) [Compound 2-87, (5-(2-isopropylphenoxy)-2-(1-(pyridin-2-ylmethyl)pyrrolidin-3-yl)phenyl)methanol], the IC50 is 260 nM on human hERG channels ((PL), read-out: hERG (nM) (PL)); 699 nM on hTRPV3 (setting [3]); 100 to 1000 nM at hTRPV3 (setting [4]). The half-life at 1 μM in data set [1] worked out at 2.46 min.

On to `CC(C)c1ccccc1Oc1ccc(C2CC(=O)N(Cc3ccccn3)C2)c(CO)c1` (centres unmarked) [Compound 2-93, 4-(2-(hydroxymethyl)-4-(2-isopropylphenoxy)phenyl)-1-(pyridin-2-ylmethyl)pyrrolidin-2-one], for which the IC50 against human hERG channels was about 5970 nM; on human hERG channels ((M), read-out: hERG) it was about 10800 nM; at hTRPV3 (setting [3]), 205 nM; at hTRPV3 (setting [4]), 100 to 1000 nM. In addition, the half-life at 1 μM in data set [1] worked out at 5.05 min. The solubility at 40 min in data set [2] is about 4.2 µM (≈ 1.75 µg/mL).

As for `CC(C)c1ccccc1-c1ccc(C2CCN(Cc3ccc(F)cn3)C2)c(CO)c1` (centres unmarked) [Compound 2-95], the IC50 is under 1000 nM at human hERG channels ((PL), read-out: hERG (nM) (PL)); 582 nM on hTRPV3 (setting [3]); 100 to 1000 nM at hTRPV3 (setting [4]).

For the molecule `O=C(c1cnccn1)N1CCC(c2ccc(-c3ccccc3C3CC3)cc2CO)C1` (centres unmarked) [Compound 2-105, (3-(2′-cyclopropyl-3-(hydroxymethyl)biphenyl-4-yl)pyrrolidin-1-yl)(pyrazin-2-yl)methanone], the IC50 was 11700 nM at human hERG channels ((PL), read-out: hERG (nM) (PL)); 61.2 nM at hTRPV3 (setting [3]); 10 to 100 nM on hTRPV3 (setting [4]). The half-life at 1 μM in data set [1] was 12.9 min. The solubility at 40 min in data set [2] was over 21 µM.

The values above are taken from US12435061B2 (priority 2020, dated 2025).
